The target in test [1] is T1, OSGPR114 (Homo sapiens, UniProt Q9H1C0).
T1 construct: expressed in transfected cells; host or cells: engineered yeast (GPA1 replaced by G-alpha chimeras, STE3 deleted; Fus1p-LacZ reporters)
The test is described as follows: FLIPR intracellular calcium assay, CHO-OSGPR114 cells. The class given is cell-based. As to conditions: FLIPR, read-out: EC50, intracellular calcium response. Here is the method: (§1) For example, in one method employed herein, CHO and CHO-114 cells were seeded at a concentration of 50K cells/well in […] growth media in clear, flat-bottom 96-well black assay plates and incubated overnight at 37 C. The growth media is aspirated from the cells and a dye solution ([…]) added to each well. The dye solution consists of 2 mM probenecid, 2 mM HBSS, […] in a growth media minus antibiotics solution. The cells are loaded with the dye for 1 h at 37 C before aspiration and rinsing with wash buffer (20 mM HBSS+2 mM Probenecid). Compound plates are then prepared with 4× compound/control. 150 ul of wash buffer is added to each well. Once the FLIPR is fully calibrated, compound is added to the plate and the release of calcium measured using 0.4 exposure length and a laser set at 0.3W.
In general terms: A change in cytosolic calcium serves as a functional read-out for many receptors and channels.

Test [2] deals with CHO cells. The test is described as follows: FLIPR intracellular calcium assay, CHO cells. The class given is cell-based, hamster. As to the method: as §1
The test system of test [3] is HCT-8 cells. Nature of the test: LPA effect on cell proliferation (Cell TiterGlo). The format is cell-based, human. Here is the method: The effect of LPA on cell proliferation (Cell TiterGlo assay, Promega) and induction of apoptosis (Apo-One Caspase 3/7 assay, Promega) was measured in the presence and absence of serum. Cell-titer Glo is an assay that quantitates ATP as a measurement of the number of viable cells in a culture. The assay utilizes a luciferase-based luminescent signal. The Apo-One assay utilizes a profluorescent caspase 3/7 consensus substrate to measure the activation of caspase in the sample. The experiments were conducted in serum-free media as it is known that serum contains high concentrations of LPA (of the order of 10-30 uM). Briefly, cells were plated in 96-well plates at a density of 20,000 cells/well. After 24 h the serum-containing media was removed from the cells and replaced with either serum-containing or serum-free media. After 24 h LPA, at concentrations from 1-100 μM was added to the cells. 24 h later the induction of apoptosis and the level of cellular proliferation was measured using the Cell titer-glo or Caspase 3/7 Apo-One assay kits commercially available from Promega.

Test [4] has as its system ERK in ASPC-1 cells. Nature of the test: ERK phosphorylation by LPA. The format is cell-based, human. The settings on record: 10 μM LPA, 3 mins. Here is the method:
(§2) FIG. 23: Ability of LPA to phosphorylate ERK in cell lines known to express OSGPR114. 10 μM LPA and 1 μM EGF were used for this experiment, and the cells were stimulated with ligand for 3 mins prior to lysing.
(§3) One of the principal proliferative signaling pathways is the activation of ERK. […] However, the ability of LPA acting at OSGPR114 to effect ERK is unknown. HCT-8 cells, which express OSGPR114 at high levels, provide one of the best models available. […] This evidence supporting the hypothesis that LPA, likely acting at least in part at OSGPR114, induces ERK activation, a signaling pathway that is known to stimulate cellular proliferation.

Test [5] deals with ERK in HCT-8 cells. Nature of the test: ERK phosphorylation by LPA. The format is cell-based, human. As to conditions: 10 μM LPA, 3 mins. Here is the method:
as §2, §3

For test [6], the system named is EGFR in HCT-8 cells. Nature of the test: EGFR transactivation, Western blot with phospho-tyrosine specific antibody. The format is cell-based, human. The settings on record: 10 μM. From the text: FIG. 24: Western blot showing the ability of LPA to transactivate EGFR in HCT-8 cells, as assessed using a phospho-tyrosine specific antibody.
The ability of LPA to phosphorylate ERK1/2 has been extensively described in the literature, and three principal mechanisms have been described for this effect. […] The first of these pathways involves β-arrestin recruitment and activation of Src, which then transactivates the RTK. The second of these pathways involves She which is recruited by LPA and can itself activate membrane-bound metalloproteases (e.g. ADAM10) which causes release of heparin-bound epidermal growth factor (EGF) which can then activate EGF receptor. EGF and activation of the EGF receptor is a well known proliferative pathway for many cell lines. The possibility of LPA causing transactivation of EGFR in HCT-8 cells was tested as the EGFR signaling pathway is known to be present and active in these cells. […] From the LPA-based literature, the potential for LPA to also transactivate other RTKs, such as PDGFR for example, in these cells is a very likely possibility.

Test [7] has as its system Shc in HCT-8 cells. The test is described as follows: Shc activation, phospho-specific antibody. The class given is cell-based, human. The settings on record: 10 uM. As to the method:
(§4) FIGS. 25A-C. LPA (10 uM) activation of Shc (A), paxillin (B) and SHP-2(C) in HCT-8 cell lysates. Phospho-specific antibodies were used to detect the activated proteins.
(§5) Many of the growth and survival signaling pathways of cancer cells have been identified. […] The protein She is an adaptor protein and the protein phosphatase SHP-2 are known to link the activation of multiple growth factor receptors to their downstream signaling pathways in cancer cells (For review see Yart et al. (2003) Current Cancer Drug Targets 3:177-192). These proteins are involved in mitogenic signaling by linking growth stimuli to the Ras-mitogen-activated protein kinase cascade and the PI3K survival pathway. […] Additionally, paxillin is a scaffold molecule intricately involved in the regulation of focal adhesions in cancer cells. It is therefore involved in the regulation of cell spreading and motility and is controlled by a multitude of signaling moieties including growth factors, and their downstream signaling molecules. Paxillin recruits these signaling components into specific cell compartments known as focal adhesions (For review, see Schaller (2001) Oncogene 20:6459-72). […] By treating HCT-8 cells with LPA (10 uM), the effect of LPA on the phosphorylation of paxillin was measured using activation state specific antibodies ([…]).

Test [8] relates to SHP-2 in HCT-8 cells. Nature of the test: SHP-2 activation, phospho-specific antibody. The class given is cell-based, human. As to conditions: 10 uM. Here is the method:
as §4, §5

For test [9], the system named is paxillin in HCT-8 cells. Nature of the test: Paxillin phosphorylation, activation state specific antibodies. The settings on record: 10 uM. The class given is cell-based, human. Here is the method: as §4, §5
In test [10] the test system is Akt in CHO cell line stably transfected with OSGPR114. The test is described as follows: Akt phosphorylation, phospho-specific Akt antibody. The class given is cell-based. The settings on record: 10 uM, 3 minutes. As to the method: FIG. 26. Effect of LPA (10 μM), EGF (1 μM) and DMSO on levels of phospho-Akt as a in a CHO-K1 cell line stably transfected with OSGPR114.
The protein Akt is a well characterized survival pathway for many cancer cells and is a pathway that can be induced by multiple cell growth factors (For review, see Marte and Downward (1997) Trends Biochem. Sci. 22:355-358). […] The cells used for this experiment were a CHO cell line stably transfected with OSGPR114. The cells were treated with vehicle, LPA (10 uM) or EGF (1 uM) for 3 minutes.

T1 sequence (Q9H1C0 whole entry): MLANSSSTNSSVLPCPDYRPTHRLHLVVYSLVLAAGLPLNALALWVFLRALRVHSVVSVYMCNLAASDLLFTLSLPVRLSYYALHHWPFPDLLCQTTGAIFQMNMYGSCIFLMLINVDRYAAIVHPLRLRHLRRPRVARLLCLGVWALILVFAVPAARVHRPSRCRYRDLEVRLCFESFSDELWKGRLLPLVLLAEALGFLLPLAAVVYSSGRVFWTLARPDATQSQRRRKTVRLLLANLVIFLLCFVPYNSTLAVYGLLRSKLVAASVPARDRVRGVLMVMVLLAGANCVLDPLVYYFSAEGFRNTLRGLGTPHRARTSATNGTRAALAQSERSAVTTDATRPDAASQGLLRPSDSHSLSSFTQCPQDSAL

Regarding lysophosphatidic acid [LPA], the EC50 – broadly, the concentration needed to bring the measured effect to its halfway point – in [1] stood at 59 nM. Besides, the “change in intracellular calcium concentration” value in test [2] is “no significant change”. In addition, the “cell growth / proliferation” value is reported as “no statistically significant effects” in test [3] (presence of 10% FCS) and “induced growth of the cells in a concentration dependent manner” in test [3] (serum free conditions, LPA 1-100 μM, 24 h). Further, the ERK activation entry in test [4] and in test [5] was “stimulate ERK” throughout. Besides, in test [6], the EGFR transactivation entry is “capable of transactivating EGFR”. The “phosphorylation of Shc” value in [7] is listed as “induced the phosphorylation”. In addition, the “phosphorylation of SHP-2” value in test [8] is on record as “induced the phosphorylation”. Moreover, the phosphorylated paxillin entry in test [9] is recorded as “highly significant increase in phosphorylated paxillin”. In addition, the “phosphorylation of Akt” value in test [10] is given as “stimulate phosphorylation of Akt”.

The values are drawn from patent US7879566B2, “Methods for the identification of modulators of OSGPR114 or OSGPR78 activity, and their use in the treatment of disease” (OSI Pharmaceuticals, Inc., priority 2003, dated 2011).
